From ChEMBL document CHEMBL1146433, “Bripiodionen, a new inhibitor of human cytomegalovirus protease from Streptomyces sp. WC76599” (J Nat Prod, 1997)

What was measured:
[1] = Inhibition of HCMV protease; design: species or system Human betaherpesvirus 5
M109 = assay: Cytotoxicity against mouse M109 cells after 72 hrs by XTT assay; type: functional, cell-based; details: M109, 72 h

- IC50 [1]: 30 µM
SMILES: CC(C)C1O/C(=C2/C(=O)NC(CC(N)=O)C2=O)C=CC1C (configuration not stated) [BRIPIODIONEN]
- IC50 (M109): 34 µM
